The results in this text go back to PubChem BioAssay (NCI).

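Growth conditions: 96-well plates. Treatment: test compound, 48 hours, 5 concentrations. Analysis: linear interpolation between bracketing concentrations; unreached endpoints set to highest concentration. GI50 marks 50% less growth. TGI marks complete inhibition of growth.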

Among the test systems are LXFL 529 NSCLC; HOP-18 NSCLC; M19-MEL melanoma; DLD-1 colon; RXF-631 renal; SK-MEL-2 melanoma; DMS 273 small cell lung; KM20L2 colon; XF 498 CNS; EKVX NSCLC; DMS 114 small cell lung; CCRF-CEM leukemia; OVCAR-3 ovarian; KM12 colon; SNB-78 CNS.
Assay in all cases: NCI-60 cell line screen, 48 h

As to `CN(C)c1snc2c1c(=O)n(C)c(=O)n2C`, the TGI in the experiment on LXFL 529 NSCLC, in the experiment with HOP-18 NSCLC, in the experiment with M19-MEL melanoma, with DLD-1 colon, with RXF-631 renal and in the experiment with SK-MEL-2 melanoma was greater than 100 µM each time. The TGI with DMS 273 small cell lung, with KM20L2 colon, in the experiment with XF 498 CNS, in the experiment on EKVX NSCLC, in the experiment with DMS 114 small cell lung and in the experiment on CCRF-CEM leukemia was greater than 100 µM each time. Besides, the TGI with OVCAR-3 ovarian was greater than 100 µM.
As to `C/C=C1\CN2CCc3c([nH]c4ccccc34)C2C=C1CCO` (stereo not given), the TGI with LXFL 529 NSCLC, in the experiment with M19-MEL melanoma, in the experiment on DLD-1 colon, with RXF-631 renal, in the experiment with SK-MEL-2 melanoma and with DMS 273 small cell lung was greater than 340 µM each time. In addition, the TGI in the experiment on KM20L2 colon, in the experiment on XF 498 CNS, in the experiment with EKVX NSCLC, with DMS 114 small cell lung, with CCRF-CEM leukemia and in the experiment on KM12 colon was greater than 340 µM throughout. In the experiment on OVCAR-3 ovarian, this compound returned a TGI greater than 340 µM.
With `COC(=O)C(Br)C1CCc2ccccc21` (stereo not given), the TGI in the experiment with LXFL 529 NSCLC, with HOP-18 NSCLC, in the experiment with M19-MEL melanoma, with DLD-1 colon, in the experiment on RXF-631 renal and in the experiment with DMS 273 small cell lung was greater than 100 µM each time. Further, the TGI in the experiment with KM20L2 colon, with DMS 114 small cell lung, in the experiment on CCRF-CEM leukemia and in the experiment on OVCAR-3 ovarian was greater than 100 µM in each case.
As to `CC(=O)O[C@@]12CO[C@@H]1C[C@@H](O)[C@@]1(C)C(=O)[C@H](O)C3=C(C)[C@@H](OC(=O)[C@H](O)[C@@H](NC(=O)c4ccccc4)c4ccccc4)C[C@@](O)([C@@H](OC(=O)c4ccccc4)C12)C3(C)C` (stereo not given in full), the TGI in the experiment on M19-MEL melanoma was 70.9 µM; in the experiment with SK-MEL-2 melanoma it was 0.887 µM; in the experiment on DMS 273 small cell lung, 13.5 µM; in the experiment on KM20L2 colon it was 0.0985 µM; in the experiment on EKVX NSCLC, greater than 100 µM; in the experiment on DMS 114 small cell lung, 22.8 µM. In addition, in the experiment with CCRF-CEM leukemia, the TGI was greater than 67.5 µM.
Consider `COc1ccc(/C(=C/n2ccnc2)C(O)c2ccc(OC)c(OC)c2)cc1OC` (stereo not given), for which the TGI in the experiment with HOP-18 NSCLC, with M19-MEL melanoma, with DLD-1 colon, with SK-MEL-2 melanoma, with DMS 273 small cell lung and in the experiment with KM20L2 colon was greater than 100 µM each time. Also, the TGI in the experiment with CCRF-CEM leukemia, in the experiment with KM12 colon and in the experiment on OVCAR-3 ovarian was greater than 100 µM throughout.
On to `C[N+](C)(C)CC(=O)N/N=C(\C(=O)NC1=C(Cl)C(=O)c2ccccc2C1=O)C(C#N)c1nc(-c2ccc([N+](=O)[O-])cc2)cs1` (stereo not given), for which the TGI in the experiment with LXFL 529 NSCLC was 21.4 µM; with HOP-18 NSCLC, 18 µM; with M19-MEL melanoma, 2.2 µM; in the experiment on DLD-1 colon, 29.5 µM; in the experiment with SK-MEL-2 melanoma it was 30.9 µM; in the experiment with DMS 273 small cell lung it was 33.7 µM. The TGI with SNB-78 CNS was 48.2 µM; in the experiment with KM20L2 colon, 42.5 µM; in the experiment on XF 498 CNS, 21.1 µM; with EKVX NSCLC, 34.2 µM; in the experiment with DMS 114 small cell lung, 9.62 µM; in the experiment with CCRF-CEM leukemia, 49.5 µM. Besides, the TGI in the experiment on KM12 colon turned out to be 63.7 µM; with OVCAR-3 ovarian, 4.44 µM.
`COC(=O)C(C(=O)C(=O)Nc1cccc([N+](=O)[O-])c1)c1nc2ccc([N+](=O)[O-])cc2[nH]c1=O` (stereo not given): the TGI with LXFL 529 NSCLC, with HOP-18 NSCLC, with M19-MEL melanoma, with DLD-1 colon, in the experiment with RXF-631 renal and with SK-MEL-2 melanoma was greater than 100 µM each time. The TGI in the experiment on DMS 273 small cell lung, in the experiment on SNB-78 CNS, in the experiment with KM20L2 colon, with XF 498 CNS, in the experiment on EKVX NSCLC and with DMS 114 small cell lung was greater than 100 µM throughout. Besides, the TGI in the experiment with CCRF-CEM leukemia, in the experiment with KM12 colon and in the experiment with OVCAR-3 ovarian was greater than 100 µM in each case.
In the case of `C#CCN(N=O)C(=O)NCCCCC(NC(C)=O)C(=O)NCc1ccccc1` (stereo not given), the TGI in the experiment with LXFL 529 NSCLC, in the experiment with HOP-18 NSCLC, with M19-MEL melanoma, in the experiment with DLD-1 colon, in the experiment on SNB-78 CNS and with KM20L2 colon was greater than 100 µM in each case. For the same compound, the TGI with XF 498 CNS, in the experiment with EKVX NSCLC, with DMS 114 small cell lung, with CCRF-CEM leukemia, with KM12 colon and in the experiment with OVCAR-3 ovarian was greater than 100 µM throughout.
As to `O=c1cc(-c2ccco2)[nH]c2cc3c(cc12)OCO3`, the TGI in the experiment on LXFL 529 NSCLC, in the experiment on M19-MEL melanoma, with DLD-1 colon, with RXF-631 renal, in the experiment with SK-MEL-2 melanoma and in the experiment with DMS 273 small cell lung was greater than 100 µM in each case. Moreover, the TGI is 66.8 µM in the experiment with KM20L2 colon; 82.4 µM with XF 498 CNS; greater than 100 µM with EKVX NSCLC; greater than 100 µM in the experiment on DMS 114 small cell lung; greater than 100 µM in the experiment on CCRF-CEM leukemia; greater than 100 µM with OVCAR-3 ovarian. Besides, the GI50 with KM20L2 colon is 21.2 µM; with DMS 114 small cell lung it was 37.2 µM; in the experiment on OVCAR-3 ovarian it was 42.9 µM.
In the case of `O=C1c2ccccc2C(=O)C1C(c1ccc(F)cc1)C1C(=O)c2ccccc2C1=O`, the TGI with LXFL 529 NSCLC, with HOP-18 NSCLC, with M19-MEL melanoma, in the experiment on DLD-1 colon, in the experiment with RXF-631 renal and in the experiment with SK-MEL-2 melanoma was greater than 100 µM in each case. The TGI in the experiment on DMS 273 small cell lung, in the experiment on SNB-78 CNS, with KM20L2 colon, with XF 498 CNS, in the experiment with EKVX NSCLC and in the experiment with DMS 114 small cell lung was greater than 100 µM each time. Further, the TGI with CCRF-CEM leukemia, in the experiment on KM12 colon and with OVCAR-3 ovarian was greater than 100 µM in each case.
For `C=CCN1/C(=C2\SC(=S)N(c3ccc(C)cc3)C2=O)Sc2c1nc[nH]c2=O`, the TGI with LXFL 529 NSCLC, in the experiment with M19-MEL melanoma, in the experiment with DLD-1 colon, in the experiment with SK-MEL-2 melanoma, in the experiment on DMS 273 small cell lung and in the experiment on SNB-78 CNS was greater than 100 µM each time. The TGI with KM20L2 colon, with XF 498 CNS, in the experiment with EKVX NSCLC, in the experiment with DMS 114 small cell lung, in the experiment with CCRF-CEM leukemia and in the experiment with OVCAR-3 ovarian was greater than 100 µM each time.
On to `COc1ccc(C2=C(N)c3ncccc3C2=O)cc1`, for which the TGI in the experiment with SK-MEL-2 melanoma, in the experiment on EKVX NSCLC, with CCRF-CEM leukemia, in the experiment on KM12 colon and in the experiment with OVCAR-3 ovarian was greater than 100 µM each time.
